# Structures can show the parent of a compound that is named as a salt.
# Columns and labels:
# [1] = Boiling point of fragrance raw materials
# [2] = LogP of fragrance raw materials
# [3] = physchem
# [4] = Example 1, fragrances for long lasting performance, head range 1.00 a 230.0
# [5] = Example 2, fragrances for thermo boost performance, head range 230.1 a 300.0
# [6] = Example 1, fragrances for long lasting performance, head range 1.00 a 3.00
# [7] = Example 2, fragrances for thermo boost performance, head range 0.00 a 3.00
compound,measurement,setting,value
"COc1ccc(C(C)=O)cc1 [ACETANISOLE CRYST., ACETANISOLE]",Boiling Point,[1]; [4],229.5 °C
CC(=O)OCCC(C)C [ISOAMYL ACETATE],Boiling Point,[1]; [4],134.9 °C
same,logP,[2],2.26
"COc1nccnc1C(C)C [ISOPROPYL METHOXYPYRAZINE-2,3]",Boiling Point,[1]; [4],217.8 °C
C=CCOC(=O)COC1CCCCC1 [CYCLOGALBANAT®],Boiling Point,[1]; [5],254.9 °C
CCCC(C)C(=O)OCC (centres unmarked) [MANZANATE],Boiling Point,[1]; [4],157.1 °C
same,logP,[2]; [6],2.76
O=COCc1ccccc1 [BENZYL FORMATE],Boiling Point,[1]; [4],197.8 °C
same,logP,[2],1.53
MENTHONE/ISOMENTHONE [MENTHONE/ISOMENTHONE RAC.],Boiling Point,[1]; [4],213 °C
same,logP,[2]; [6],2.87
COC(=O)c1ccccc1 [METHYL BENZOATE],Boiling Point,[1]; [4],195.9 °C
same,logP,[2],1.83
CC1=CC(C)C(C=O)CC1 (centres unmarked) [LIGUSTRAL],Boiling Point,[1]; [4],200.5 °C
CCCC1CCC(=O)O1 (centres unmarked) [HEPTALACTONE GAMMA],Boiling Point,[1]; [5],230.3 °C
same,logP,[2]; [7],1.09
CC(CC=O)c1ccccc1 (centres unmarked) [TRIFERNAL],Boiling Point,[1]; [4],228.4 °C
same,logP,[2]; [6],2.45
MENTHONE L/ISOMENTHONE D,Boiling Point,[1]; [4],213 °C
same,logP,[2]; [6],2.87
"Cc1csc(C(C)C)n1 [ISOPROPYL METHYL THIAZOLE-2,4]",Boiling Point,[1]; [4],198 °C
COC(OC)C(C)c1ccccc1 (centres unmarked) [HYDRATROPIC ALDEHYDE DIMETH.ACET],Boiling Point,[1]; [4],227.2 °C
CCOc1cc(C=O)ccc1O [ETHYL VANILLIN],logP,[3],1.55
CC1=CC(C)C(C=O)CC1 (centres unmarked) [VERTOCITRAL],Boiling Point,[1]; [4],200.5 °C
CCc1occc(=O)c1O [ETHYL MALTOL],Boiling Point,[1]; [5],283.4 °C
same,logP,[2]; [7],0.3
COC(=O)Cc1ccccc1 [METHYL PHENYLACETATE],logP,[3],2.08
same,Boiling Point,[1]; [4],215.6 °C
CCCCCC1CCC(=O)O1 (centres unmarked) [ALDEHYDE C18 SO-CALLED],Boiling Point,[1]; [5],265.5 °C
CCCCCC(=O)OCC [ETHYL CAPROATE],Boiling Point,[1]; [4],170.1 °C
CCCCCCCC=O [ALDEHYDE C 8],Boiling Point,[1]; [4],176 °C
same,logP,[2]; [6],2.78
CCOC(=O)Cc1ccccc1 [ETHYL PHENYL ACETATE],logP,[3],2.57
same,Boiling Point,[1]; [5],234.3 °C
CCCCCC#CC(=O)OC [METHYL HEPTIN CARBONATE],Boiling Point,[1]; [4],205.3 °C
same,logP,[2]; [6],2.6
O=COCCc1ccccc1 [PHENYLETHYL FORMATE],Boiling Point,[1]; [4],217.3 °C
same,logP,[2],2.02
CCOC(=O)CC [ETHYL PROPIONATE],Boiling Point,[1]; [4],102.3 °C
same,logP,[2],1.36
CC1(C)[C@@H]2CC[C@@]1(C)[C@H](O)C2 (racemic) [ISOBORNEOL],Boiling Point,[1]; [4],210 °C
CC(=O)OCC=C(C)C [PRENYL ACETATE],Boiling Point,[1]; [4],149.2 °C
same,logP,[2],2.18
CC(=O)C1CCCC(C)(C)C1 (centres unmarked) [HERBAC],Boiling Point,[1]; [4],197.4 °C
"COc1nccnc1CC(C)C [ISOBUTYL METHOXYPYRAZINE-3,2]",Boiling Point,[1]; [5],236.5 °C
CC(C)(CO)Cc1ccccc1 [MUGUETALCOHOL],Boiling Point,[1]; [5],260.6 °C
"CC/C=C/CC/C=C/CO [NONADIENOL-2,6]",Boiling Point,[1]; [5],231.6 °C
same,logP,[2]; [7],2.87
CC12CCC(C1)C(C)(C)C2O (centres unmarked) [FENCHOL],Boiling Point,[1]; [4],210 °C
"CC/C=C\CC/C=C/C=O [NONADIENAL TRANS,CIS-2,6]",Boiling Point,[1]; [4],208.7 °C
CCCCCCC(C)=O [OCTANONE-2],Boiling Point,[1]; [4],163.6 °C
"c1ccc2[nH]ccc2c1 [INDOLE FF, INDOLE]",logP,[3],2.05
same,Boiling Point,[1]; [5],250 °C
O=Cc1ccc2c(c1)OCO2 [HELIOTROPIN],Boiling Point,[1]; [5],257 °C
same,logP,[2]; [7],1.77
CCCCCOC(C)=O [AMYL ACETATE N],Boiling Point,[1]; [4],148.4 °C
CCCCCCC1CCC(=O)O1 (centres unmarked) [DECALACTONE GAMMA],Boiling Point,[1]; [5],281.7 °C
same,logP,[2]; [7],2.57
CC(=O)OC1CCCCC1 [CYCLOHEXYL ACETATE],Boiling Point,[1]; [4],179.4 °C
same,logP,[2],2.64
CC(=O)OCc1ccccc1 [BENZYL ACETATE],Boiling Point,[1]; [4],215.6 °C
CC(=O)OC(C)c1ccccc1 (centres unmarked) [STYRALYL ACETATE],Boiling Point,[1]; [4],223.1 °C
CC(=O)c1nccs1 [ACETYL THIAZOLE-2],Boiling Point,[1]; [4],209 °C
COc1cc(C=O)ccc1O [VANILLIN],Boiling Point,[1]; [5],274.3 °C
same,logP,[2],1.05
C=CCOC(=O)COCCC(C)C [ALLYL AMYL GLYCOLATE],Boiling Point,[1]; [4],217.7 °C
CC/C=C\CCOC(C)=O [HEXENYL ACETATE CIS-3],Boiling Point,[1]; [4],176.6 °C
O=CCc1ccccc1,Boiling Point,[1]; [4],201.5 °C
same,logP,[2],1.54
CCCCOC(C)=O [BUTYL ACETATE],Boiling Point,[1]; [4],125.8 °C
same,logP,[2],1.85
CCCCC1CCCC(=O)O1 (centres unmarked) [NONALACTONE DELTA],Boiling Point,[1]; [5],267 °C
same,logP,[2]; [7],2.08
CCCCCC1CCCC(=O)O1 (centres unmarked) [DECALACTONE DELTA],Boiling Point,[1]; [5],283.2 °C
same,logP,[2]; [7],2.57
CCCCCC(=O)CC [OCTANONE-3],Boiling Point,[1]; [4],163.6 °C
"COC(=O)c1ccccc1O [METHYL SALICYLATE PF, METHYL SALICYLATE]",Boiling Point,[1]; [5],252.2 °C
same,logP,[2],2.6
O=c1ccc2ccccc2o1 [COUMARIN],Boiling Point,[1]; [5],290.7 °C
"COC(=O)c1ccccc1N [METHYL ANTHRANILATE (=130085), METHYL ANTHRANILATE]",logP,[3],2.26
same,Boiling Point,[1]; [5],263.6 °C
COc1ccc(C)cc1 [CRESYL METHYL ETHER PARA],Boiling Point,[1]; [4],170.8 °C
CCOc1cc(COC)ccc1O [METHYL DIANTILIS],Boiling Point,[1]; [5],282.4 °C
same,logP,[2]; [7],1.61
COC(Cc1ccccc1)OC,Boiling Point,[1]; [4],219.8 °C
same,logP,[2],1.93
CCOC(=O)c1ccccc1 [ETHYL BENZOATE],logP,[3],2.32
same,Boiling Point,[1]; [4],215.6 °C
CCCCCC(=O)OC [METHYL CAPROATE],Boiling Point,[1]; [4],148.4 °C
same,logP,[2],2.34
COc1cc(C)ccc1O [METHYL GUAIACOL-4],Boiling Point,[1]; [5],230.4 °C
CCOC(=O)COc1ccccc1 [ETHYL PHENOXY ACETATE],Boiling Point,[1]; [5],252.8 °C
"COc1ccc(C=O)cc1 [ANISIC ALDEHYDE PURE, ANISIC ALDEHYDE]",Boiling Point,[1]; [4],221.6 °C
CC/C=C\CCOC(=O)OC [LEAFOVERT®],Boiling Point,[1]; [4],213 °C
same,logP,[2]; [6],2.47
CC(=O)c1ccc(C)cc1 [METHYL ACETOPHENONE PARA],Boiling Point,[1]; [4],209.7 °C
same,logP,[2]; [6],2.22
CCC/C=C/C=O [HEXENAL TRANS-2],Boiling Point,[1]; [4],139.2 °C
same,logP,[2]; [6],1.58
"O=Cc1ccccc1 [BE[…], BENZALDEHYDE]",logP,[3],1.71
same,Boiling Point,[1]; [4],181.2 °C
ISOOCTANONE,Boiling Point,[1]; [4],150.5 °C
same,logP,[2]; [6],2.15
CCCCC1CCC(=O)O1 (centres unmarked) [OCTALACTONE GAMMA],Boiling Point,[1]; [5],248.4 °C
CC/C=C\CCOC(C)OCC (centres unmarked) [LEAF ACETAL],Boiling Point,[1]; [4],201.4 °C
same,logP,[2]; [6],2.95
CCCC1CCCC(=O)O1 (centres unmarked) [OCTALACTONE DELTA],Boiling Point,[1]; [5],250 °C
"CC(=O)CCC=C(C)C [METIL-6-HEPTEN-5-ONA-2 SUPRA, METIL-6-HEPTEN-5-ONA-2]",Boiling Point,[1]; [4],164.4 °C
CCCC(=O)OCC [ETHYL BUTYRATE],Boiling Point,[1]; [4],125.8 °C
same,logP,[2],1.85
"OCCc1ccccc1 [PHENYLETHYL ALCOHOL BA FREE, PHENYLETHYL ALCOHOL]",Boiling Point,[1]; [4],224.9 °C
same,logP,[2],1.57
CC(=O)OCC(C)C [ISOBUTYL ACETATE],Boiling Point,[1]; [4],111.7 °C
CC=Cc1ccc(O)c(OC)c1 [ISOEUGENOL],Boiling Point,[1]; [5],270.6 °C
same,logP,[2],2.65
Cc1ccc(O)cc1 [CRESOL PARA],Boiling Point,[1]; [4],190.8 °C
same,logP,[2]; [6],2.06
CCCCCCOC(C)=O [HEXYL ACETATE],Boiling Point,[1]; [4],170.1 °C
CC(=O)c1ccccc1 [ACETOPHENONE],Boiling Point,[1]; [4],189.8 °C

# — US20220183937A1, “METHOD FOR IMPROVING THE PERFORMANCE OF A FRAGRANCE OR A FRAGRANCE MIXTURE” (SYMRISE AG, priority 2019, published 2022)
